The compounds below were run against T1, ETA receptor (Rattus norvegicus, UniProt P26684) (assay: In vitro evaluation of inhibitory activity against ETA receptor (isolated rat aortic ring, literature procedure)). Details: telmisartan as control.
T1 construct: evaluated in isolated rat aortic ring; from tissue; host or cells: isolated rat aortic ring
T1 sequence (P26684 21-426): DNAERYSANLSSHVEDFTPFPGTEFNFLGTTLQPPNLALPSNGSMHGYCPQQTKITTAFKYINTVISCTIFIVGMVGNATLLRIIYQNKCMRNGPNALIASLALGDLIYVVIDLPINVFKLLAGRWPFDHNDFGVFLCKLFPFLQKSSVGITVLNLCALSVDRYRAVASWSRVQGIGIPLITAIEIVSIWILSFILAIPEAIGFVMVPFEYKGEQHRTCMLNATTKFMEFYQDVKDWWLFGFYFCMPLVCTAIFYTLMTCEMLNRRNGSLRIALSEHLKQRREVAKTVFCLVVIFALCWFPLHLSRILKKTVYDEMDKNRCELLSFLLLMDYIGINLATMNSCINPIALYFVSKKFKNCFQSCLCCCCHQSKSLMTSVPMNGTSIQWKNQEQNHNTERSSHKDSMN
Format: biochemical
Description: The biological activity of compounds was evaluated in isolated rat aortic ring and in systemic arterial pressure (SAP) of anesthetized rat experiments using the literature procedures in Chinese Pharmacological Bulletin 2008, 24 (11): 1422-1426.
Telmisartan, as an AT1 receptor antagonist approved for marketing by the US FDA in 1998, was used as a control to evaluate the inhibitory activity of AT1 and ETA receptors.

SMILES | Ki [nM]
CCOCc1cc(Cn2c(C)nc3c(C)cc(-c4nc5ccccc5n4C)cc32)ccc1-c1ccccc1S(=O)(=O)Nc1noc(C)c1C [Compound 1-4] | > 102
CCOCc1cc(Cn2c(CC)nc3c(C)cc(-c4nc5ccccc5n4C)cc32)ccc1-c1ccccc1S(=O)(=O)Nc1noc(C)c1C [Compound 1-7, N-(4,5-dimethylisoxazol-3-yl)-2′-(ethoxymethyl)-4′-((2′-ethyl-1,7′-dimethyl-1H,3′H-[2,5′-bibenzo[d]imidazol]-3′-yl)methyl)-[1,1′-biphenyl]-2-sulfonamide] | 13.2 ± 3.3
CCCc1nc2c(C)cc(-c3nc4ccccc4n3C)cc2n1Cc1ccc(-c2ccccc2S(=O)(=O)Nc2noc(C)c2C)c(COCC)c1 [Compound 1-10, 4′-((1,7′-dimethyl-2′-propyl-1H,3′H-[2,5′-bibenzo[d]imidazol]-3′-yl)methyl)-N-(4,5-dimethylisoxazol-3-yl)-2′-(ethoxymethyl)-[1,1′-biphenyl]-2-sulfonamide] | 6.8 ± 1.8
CCCCc1nc2c(C)cc(-c3nc4ccccc4n3C)cc2n1Cc1ccc(-c2ccccc2S(=O)(=O)Nc2noc(C)c2C)c(COCC)c1 [Compound 1-13, 4′-((2′-butyl-1,7′-dimethyl-1H,3′H-[2,5′-bibenzo[d]imidazol]-3′-yl)methyl)-N-(4,5-dimethylisoxazol-3-yl)-2′-(ethoxymethyl)-[1,1′-biphenyl]-2-sulfonamide] | 7.2 ± 2.1
CCCc1nc2c(C)cc(-c3nc4ccccc4n3C)cc2n1Cc1ccc(-c2ccccc2S(=O)(=O)Nc2onc(C)c2C)c(COCC)c1 [Compound 2-3, 4′-((1,7′-dimethyl-2′-propyl-1H,3′H-[2,5′-bibenzo[d]imidazol]-3′-yl)methyl)-N-(3,4-dimethylisoxazol-5-yl)-2′-(ethoxymethyl)-[1,1′-biphenyl]-2-sulfonamide] | 8.8 ± 2.2
CCCCc1nc2c(C)cc(-c3nc4ccccc4n3C)cc2n1Cc1ccc(-c2ccccc2S(=O)(=O)Nc2onc(C)c2C)c(COCC)c1 [Compound 2-5, 4′-((2′-butyl-1,7′-dimethyl-1H,3′H-[2,5′-bibenzo[d]imidazol]-3′-yl)methyl)-N-(3,4-dimethylisoxazol-5-yl)-2′-(ethoxymethyl)-[1,1′-biphenyl]-2-sulfonamide] | 9.2 ± 2.3
CCCc1nc2c(C)cc(-c3nc4ccccc4n3C)cc2n1Cc1ccc(-c2ccccc2C(=O)O)cc1 [Telmisartan, reference compound] | > 103
